{"source": "PubChem BioAssay (NCI)", "assay_in_all_cases": "NCI-60 cell line screen, 48 h", "key": {"786-0 renal": {"tested_on": "786-0 renal"}, "A498 renal": {"tested_on": "A498 renal"}, "A549 NSCLC": {"tested_on": "A549 NSCLC"}, "ACHN renal": {"tested_on": "ACHN renal"}, "BT-549 breast": {"tested_on": "BT-549 breast"}, "CCRF-CEM leukemia": {"tested_on": "CCRF-CEM leukemia"}, "COLO 205 colon": {"tested_on": "COLO 205 colon"}, "DU-145 prostate": {"tested_on": "DU-145 prostate"}, "EKVX NSCLC": {"tested_on": "EKVX NSCLC"}, "HCC-2998 colon": {"tested_on": "HCC-2998 colon"}, "HCT-116 colon": {"tested_on": "HCT-116 colon"}, "HCT-15 colon": {"tested_on": "HCT-15 colon"}, "HL-60(TB) leukemia": {"tested_on": "HL-60(TB) leukemia"}, "HOP-62 NSCLC": {"tested_on": "HOP-62 NSCLC"}, "HOP-92 NSCLC": {"tested_on": "HOP-92 NSCLC"}, "HS 578T breast": {"tested_on": "HS 578T breast"}, "HT29 colon": {"tested_on": "HT29 colon"}, "IGROV1 ovarian": {"tested_on": "IGROV1 ovarian"}, "K-562 leukemia": {"tested_on": "K-562 leukemia"}, "KM12 colon": {"tested_on": "KM12 colon"}, "LOX IMVI melanoma": {"tested_on": "LOX IMVI melanoma"}, "M14 melanoma": {"tested_on": "M14 melanoma"}, "MALME-3M melanoma": {"tested_on": "MALME-3M melanoma"}, "MCF7 breast": {"tested_on": "MCF7 breast"}, "MDA-MB-231 breast": {"tested_on": "MDA-MB-231 breast"}, "MDA-MB-435": {"tested_on": "MDA-MB-435"}, "MOLT-4 leukemia": {"tested_on": "MOLT-4 leukemia"}, "NCI-H226 lung": {"tested_on": "NCI-H226 lung"}, "NCI-H23 lung": {"tested_on": "NCI-H23 lung"}, "NCI-H460 lung": {"tested_on": "NCI-H460 lung"}, "NCI-H522 lung": {"tested_on": "NCI-H522 lung"}, "NCI/ADR-RES ovarian": {"tested_on": "NCI/ADR-RES ovarian"}, "OVCAR-3 ovarian": {"tested_on": "OVCAR-3 ovarian"}, "OVCAR-4 ovarian": {"tested_on": "OVCAR-4 ovarian"}, "OVCAR-5 ovarian": {"tested_on": "OVCAR-5 ovarian"}, "OVCAR-8 ovarian": {"tested_on": "OVCAR-8 ovarian"}, "PC-3 prostate": {"tested_on": "PC-3 prostate"}, "RPMI-8226 leukemia": {"tested_on": "RPMI-8226 leukemia"}, "RXF 393 renal": {"tested_on": "RXF 393 renal"}, "SF-268 CNS": {"tested_on": "SF-268 CNS"}, "SF-295 CNS": {"tested_on": "SF-295 CNS"}, "SF-539 CNS": {"tested_on": "SF-539 CNS"}, "SK-MEL-2 melanoma": {"tested_on": "SK-MEL-2 melanoma"}, "SK-MEL-28 melanoma": {"tested_on": "SK-MEL-28 melanoma"}, "SK-MEL-5 melanoma": {"tested_on": "SK-MEL-5 melanoma"}, "SK-OV-3 ovarian": {"tested_on": "SK-OV-3 ovarian"}, "SN12C renal": {"tested_on": "SN12C renal"}, "SNB-19 CNS": {"tested_on": "SNB-19 CNS"}, "SNB-75 CNS": {"tested_on": "SNB-75 CNS"}, "SR leukemia": {"tested_on": "SR leukemia"}, "SW-620 colon": {"tested_on": "SW-620 colon"}, "T-47D breast": {"tested_on": "T-47D breast"}, "TK-10 renal": {"tested_on": "TK-10 renal"}, "U251 CNS": {"tested_on": "U251 CNS"}, "UACC-257 melanoma": {"tested_on": "UACC-257 melanoma"}, "UACC-62 melanoma": {"tested_on": "UACC-62 melanoma"}, "UO-31 renal": {"tested_on": "UO-31 renal"}}, "note": "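A five-concentration, 48-hour dose response in 96-well plates underlies each endpoint, interpolated linearly between surrounding concentrations. TGI denotes the concentration required for complete inhibition of growth.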"}
{"smiles": "C(/Cc1ccc2c(c1)OCO2)=N\\NC1=NCCCCN1", "values": [{"measurement": "TGI", "setting": "786-0 renal", "value": "> 100", "unit": "µM"}, {"measurement": "TGI", "setting": "A498 renal", "value": 91.4, "unit": "µM"}, {"measurement": "TGI", "setting": "A549 NSCLC", "value": "> 100", "unit": "µM"}, {"measurement": "TGI", "setting": "ACHN renal", "value": "> 100", "unit": "µM"}, {"measurement": "TGI", "setting": "BT-549 breast", "value": "> 100", "unit": "µM"}, {"measurement": "TGI", "setting": "CCRF-CEM leukemia", "value": "> 100", "unit": "µM"}, {"measurement": "TGI", "setting": "COLO 205 colon", "value": "> 100", "unit": "µM"}, {"measurement": "TGI", "setting": "DU-145 prostate", "value": "> 100", "unit": "µM"}, {"measurement": "TGI", "setting": "EKVX NSCLC", "value": "> 100", "unit": "µM"}, {"measurement": "TGI", "setting": "HCC-2998 colon", "value": "> 100", "unit": "µM"}, {"measurement": "TGI", "setting": "HCT-116 colon", "value": "> 100", "unit": "µM"}, {"measurement": "TGI", "setting": "HCT-15 colon", "value": "> 100", "unit": "µM"}, {"measurement": "TGI", "setting": "HL-60(TB) leukemia", "value": "> 100", "unit": "µM"}, {"measurement": "TGI", "setting": "HOP-62 NSCLC", "value": "> 100", "unit": "µM"}, {"measurement": "TGI", "setting": "HOP-92 NSCLC", "value": "> 100", "unit": "µM"}, {"measurement": "TGI", "setting": "HS 578T breast", "value": "> 100", "unit": "µM"}, {"measurement": "TGI", "setting": "HT29 colon", "value": "> 100", "unit": "µM"}, {"measurement": "TGI", "setting": "IGROV1 ovarian", "value": "> 100", "unit": "µM"}, {"measurement": "TGI", "setting": "K-562 leukemia", "value": "> 100", "unit": "µM"}, {"measurement": "TGI", "setting": "KM12 colon", "value": "> 100", "unit": "µM"}, {"measurement": "TGI", "setting": "LOX IMVI melanoma", "value": "> 100", "unit": "µM"}, {"measurement": "TGI", "setting": "M14 melanoma", "value": 35.1, "unit": "µM"}, {"measurement": "TGI", "setting": "MALME-3M melanoma", "value": "> 100", "unit": "µM"}, {"measurement": "TGI", "setting": "MCF7 breast", "value": "> 100", "unit": "µM"}, {"measurement": "TGI", "setting": "MDA-MB-231 breast", "value": "> 100", "unit": "µM"}, {"measurement": "TGI", "setting": "MDA-MB-435", "value": "> 100", "unit": "µM"}, {"measurement": "TGI", "setting": "MOLT-4 leukemia", "value": "> 100", "unit": "µM"}, {"measurement": "TGI", "setting": "NCI-H226 lung", "value": "> 100", "unit": "µM"}, {"measurement": "TGI", "setting": "NCI-H23 lung", "value": "> 100", "unit": "µM"}, {"measurement": "TGI", "setting": "NCI-H460 lung", "value": "> 100", "unit": "µM"}, {"measurement": "TGI", "setting": "NCI-H522 lung", "value": "> 100", "unit": "µM"}, {"measurement": "TGI", "setting": "NCI/ADR-RES ovarian", "value": "> 100", "unit": "µM"}, {"measurement": "TGI", "setting": "OVCAR-3 ovarian", "value": "> 100", "unit": "µM"}, {"measurement": "TGI", "setting": "OVCAR-4 ovarian", "value": "> 100", "unit": "µM"}, {"measurement": "TGI", "setting": "OVCAR-5 ovarian", "value": "> 100", "unit": "µM"}, {"measurement": "TGI", "setting": "OVCAR-8 ovarian", "value": "> 100", "unit": "µM"}, {"measurement": "TGI", "setting": "PC-3 prostate", "value": "> 100", "unit": "µM"}, {"measurement": "TGI", "setting": "RPMI-8226 leukemia", "value": "> 100", "unit": "µM"}, {"measurement": "TGI", "setting": "RXF 393 renal", "value": "> 100", "unit": "µM"}, {"measurement": "TGI", "setting": "SF-268 CNS", "value": "> 100", "unit": "µM"}, {"measurement": "TGI", "setting": "SF-295 CNS", "value": "> 100", "unit": "µM"}, {"measurement": "TGI", "setting": "SF-539 CNS", "value": "> 100", "unit": "µM"}, {"measurement": "TGI", "setting": "SK-MEL-2 melanoma", "value": "> 100", "unit": "µM"}, {"measurement": "TGI", "setting": "SK-MEL-28 melanoma", "value": "> 100", "unit": "µM"}, {"measurement": "TGI", "setting": "SK-MEL-5 melanoma", "value": 58.2, "unit": "µM"}, {"measurement": "TGI", "setting": "SK-OV-3 ovarian", "value": "> 100", "unit": "µM"}, {"measurement": "TGI", "setting": "SN12C renal", "value": "> 100", "unit": "µM"}, {"measurement": "TGI", "setting": "SNB-19 CNS", "value": "> 100", "unit": "µM"}, {"measurement": "TGI", "setting": "SNB-75 CNS", "value": "> 100", "unit": "µM"}, {"measurement": "TGI", "setting": "SR leukemia", "value": "> 100", "unit": "µM"}, {"measurement": "TGI", "setting": "SW-620 colon", "value": "> 100", "unit": "µM"}, {"measurement": "TGI", "setting": "T-47D breast", "value": "> 100", "unit": "µM"}, {"measurement": "TGI", "setting": "TK-10 renal", "value": "> 100", "unit": "µM"}, {"measurement": "TGI", "setting": "U251 CNS", "value": "> 100", "unit": "µM"}, {"measurement": "TGI", "setting": "UACC-257 melanoma", "value": "> 100", "unit": "µM"}, {"measurement": "TGI", "setting": "UACC-62 melanoma", "value": "> 100", "unit": "µM"}, {"measurement": "TGI", "setting": "UO-31 renal", "value": "> 100", "unit": "µM"}]}
